The values that follow come from PubChem BioAssay (NCI).

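1) Cells in 96-well plates. 2) Compound, 48 h, 5 concentrations. 3) Linear interpolation between surrounding doses. 4) Unreached endpoint = highest concentration. The concentration for full growth arrest is given as TGI.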 Where only a bound is given, the exact number is not on record here.

Test systems include SN12C renal; NCI-H226 lung; SK-OV-3 ovarian; SW-620 colon; HL-60(TB) leukemia; CAKI-1 renal; ACHN renal; IGROV1 ovarian; RPMI-8226 leukemia; NCI-H23 lung; EKVX NSCLC; KM12 colon.
What all share (assay): DTP human tumour cell line panel, 48 h

As usually defined, the TGI is the concentration at which net growth stops. A lower TGI goes with greater sensitivity of the cells. As for `O=C1CC2SC(COCc3ccccc3)(CCN2Cc2ccccc2)C1` (stereo unspecified), the TGI in the test with SN12C renal is more than 100 µM; in the test on NCI-H226 lung, more than 100 µM; in the test with SK-OV-3 ovarian, more than 100 µM; in the test on SW-620 colon, more than 100 µM; with HL-60(TB) leukemia, 43 µM; in the test on CAKI-1 renal, more than 100 µM. The TGI is more than 100 µM in the test with ACHN renal; more than 100 µM in the test with IGROV1 ovarian; 93.4 µM with RPMI-8226 leukemia; more than 100 µM in the test with NCI-H23 lung; more than 100 µM in the test on EKVX NSCLC; more than 100 µM in the test with KM12 colon.
Consider `COC1C(O)C(C)OC(OC2CCC3(C)C(CCC4C3C(O)CC3(C)C(C5=CC(=O)OC5)CCC43O)C2)C1O` (stereo unspecified), for which the TGI came out at 0.426 µM with SN12C renal; 2.39 µM in the test with NCI-H226 lung; 0.905 µM in the test on SK-OV-3 ovarian; 4.9 µM with SW-620 colon; 0.665 µM in the test on HL-60(TB) leukemia; 0.469 µM in the test on CAKI-1 renal. Besides, the TGI with ACHN renal stood at 0.684 µM; in the test on IGROV1 ovarian, 10.7 µM; with RPMI-8226 leukemia, 0.793 µM; with NCI-H23 lung, 0.308 µM; in the test on EKVX NSCLC, 0.536 µM; in the test on KM12 colon, 6.12 µM.
For `CCOC(=O)C(Cc1ccc(N(CCCl)CCCl)cc1)NC(=O)CCCN1C(=O)CN=C(c2ccccc2)c2cc(Cl)ccc21` (stereo unspecified), the concentration for total growth inhibition (TGI) in the test on SN12C renal is 14.5 µM; with NCI-H226 lung it was 97 µM; with SK-OV-3 ovarian, more than 100 µM; with SW-620 colon, more than 62.3 µM; with HL-60(TB) leukemia, 7.51 µM; with CAKI-1 renal, more than 55.7 µM. Also, the TGI in the test on ACHN renal is 22.5 µM; in the test on IGROV1 ovarian, 16.9 µM; in the test with RPMI-8226 leukemia it was 20.7 µM; in the test on NCI-H23 lung it was more than 39 µM; in the test with EKVX NSCLC, more than 100 µM; in the test with KM12 colon it was more than 100 µM.
Take `COC1/C=C/C(C)C(C(C)C(OC)C(C)CCC(=O)C(C)C(CC(=O)O)OC)OC(=O)/C=C/C=C(\C)CC(OC)CC2=CC(=O)O[C@H](C2)C(C)C(OC)CC(OC)/C=C/C(C)C(OC)C1` (stereo partly specified): the TGI with SN12C renal is more than 4.35 µM; in the test on NCI-H226 lung it was 2.26 µM; with SK-OV-3 ovarian, more than 4.35 µM; in the test with SW-620 colon it was more than 4.35 µM; with HL-60(TB) leukemia, 1.73 µM; with CAKI-1 renal it was 0.851 µM. The TGI was more than 4.35 µM with ACHN renal; 0.435 µM in the test with IGROV1 ovarian; more than 4.35 µM in the test on RPMI-8226 leukemia; more than 4.35 µM in the test with NCI-H23 lung; more than 4.35 µM with EKVX NSCLC; more than 4.35 µM in the test with KM12 colon.
With `C1CN2CCNCCN(CCN1)CC2`, the TGI with SN12C renal, in the test with NCI-H226 lung, in the test with SK-OV-3 ovarian, in the test on SW-620 colon, with HL-60(TB) leukemia and in the test on CAKI-1 renal was more than 100 µM in each case. Further, the TGI in the test on ACHN renal, in the test on IGROV1 ovarian, with RPMI-8226 leukemia, in the test on NCI-H23 lung, in the test on EKVX NSCLC and in the test with KM12 colon was more than 100 µM each time.
For the molecule `N#Cc1ccc(C2NN=CC23C(=O)c2ccccc2OC3c2ccccc2)cc1` (stereo unspecified), the TGI with SN12C renal, in the test with NCI-H226 lung, with SK-OV-3 ovarian, in the test with SW-620 colon, in the test on HL-60(TB) leukemia and in the test on CAKI-1 renal was more than 100 µM each time. The TGI with ACHN renal was more than 100 µM; in the test on IGROV1 ovarian it was more than 100 µM; in the test on RPMI-8226 leukemia it was 61.4 µM; in the test with NCI-H23 lung, more than 100 µM; in the test with EKVX NSCLC, 84.8 µM; with KM12 colon, more than 100 µM.
Regarding `COc1cccc(-c2c(-c3ccccc3)[nH]c(C)c2C(=O)ONC(=O)c2ccccc2)c1`, the total growth inhibition concentration (TGI) in the test with SN12C renal is 12.8 µM; with NCI-H226 lung, 30.7 µM; with SK-OV-3 ovarian it was 29.8 µM; in the test on SW-620 colon, 40.5 µM; in the test with HL-60(TB) leukemia, 4.37 µM; in the test on CAKI-1 renal it was 11.3 µM. Besides, the TGI in the test on ACHN renal came out at 10.9 µM; with IGROV1 ovarian, 3.18 µM; with RPMI-8226 leukemia, 29.3 µM; in the test on NCI-H23 lung, 25.9 µM; in the test with EKVX NSCLC, 23.8 µM; with KM12 colon, 32.4 µM.
As for `COC1CC(O[C@H]2CC[C@@]3(C)[C@@H](CC[C@]4(O)[C@@H]3CC[C@]3(C)[C@@H](C(C)=O)[C@H](OC(=O)CC(C)C)[C@@H](OC(=O)c5ccccc5)[C@@]34O)C2)OC(C)C1OC1CC(OC)C(OC2OC(C)C(O)C(OC)C2O)C(C)O1` (stereo partly specified), the total growth inhibition concentration (TGI) with SN12C renal, with NCI-H226 lung, with SK-OV-3 ovarian, with SW-620 colon, with HL-60(TB) leukemia and in the test on CAKI-1 renal was more than 25 µM each time. The TGI in the test on ACHN renal was more than 25 µM; in the test with IGROV1 ovarian, more than 25 µM; in the test with RPMI-8226 leukemia it was 14.5 µM; with NCI-H23 lung, more than 25 µM; with EKVX NSCLC, more than 25 µM; in the test with KM12 colon, more than 25 µM.
Consider `Cc1ccc(N2C(N)=C(C#N)C(C#N)(C#N)C2c2ccccc2)cc1` (stereo unspecified), for which the TGI in the test on SN12C renal was found to be 30.9 µM; with NCI-H226 lung it was 38.9 µM; with SK-OV-3 ovarian it was 47.6 µM; in the test with SW-620 colon, 15.2 µM; in the test with HL-60(TB) leukemia it was 6.15 µM; in the test on CAKI-1 renal it was 30.9 µM. The TGI in the test on ACHN renal was 28.2 µM; in the test on IGROV1 ovarian, 20.2 µM; with RPMI-8226 leukemia it was 32.1 µM; in the test with NCI-H23 lung it was 38.1 µM; in the test on EKVX NSCLC, 46 µM; with KM12 colon, 33.6 µM.
Turning to `C#CC1NC(=O)C1N(CC)CC` (stereo unspecified), the concentration for total growth inhibition (TGI) with SN12C renal, in the test with NCI-H226 lung, with SK-OV-3 ovarian, with SW-620 colon, in the test with HL-60(TB) leukemia and with CAKI-1 renal was more than 100 µM each time. Further, the TGI in the test on ACHN renal, with IGROV1 ovarian, with RPMI-8226 leukemia, in the test on NCI-H23 lung, in the test with EKVX NSCLC and in the test on KM12 colon was more than 100 µM each time.
For `Cc1cccc2c1c(=O)c1c(O)cc(O)cc1n2C`, the TGI in the test with SN12C renal, with NCI-H226 lung, in the test on SK-OV-3 ovarian, with SW-620 colon, with HL-60(TB) leukemia and in the test on CAKI-1 renal was more than 100 µM in each case. The TGI with ACHN renal, in the test with IGROV1 ovarian, in the test with RPMI-8226 leukemia, with NCI-H23 lung, in the test with EKVX NSCLC and in the test on KM12 colon was more than 100 µM in each case.
Turning to `O=C(C/C=C/c1ccccc1)c1ccccc1`, the TGI is 60.9 µM in the test with SN12C renal; 66.6 µM with NCI-H226 lung; more than 100 µM in the test with SK-OV-3 ovarian; more than 100 µM in the test on SW-620 colon; 66 µM with HL-60(TB) leukemia; 31.7 µM in the test on CAKI-1 renal. For the same molecule, the TGI in the test on ACHN renal was 35.8 µM; in the test on IGROV1 ovarian it was more than 100 µM; in the test on RPMI-8226 leukemia, 83.5 µM; with NCI-H23 lung, 31.6 µM; with EKVX NSCLC, more than 100 µM; with KM12 colon it was 25.6 µM.
Turning to `Cc1ccc(N=C2C(c3ccccc3)=C(SC3=C(c4ccccc4)C(=Nc4ccc(C)cc4)c4ccccc43)c3ccccc32)cc1`, the TGI in the test with SN12C renal was 77.1 µM; with NCI-H226 lung, more than 63.1 µM; in the test on SK-OV-3 ovarian, 35.4 µM; in the test on SW-620 colon, more than 100 µM; in the test with HL-60(TB) leukemia it was 17.8 µM; with CAKI-1 renal it was 65.6 µM. Further, the TGI in the test on ACHN renal is 18.3 µM; with IGROV1 ovarian, 45.5 µM; in the test with RPMI-8226 leukemia it was more than 100 µM; in the test on NCI-H23 lung, 41.6 µM; in the test on EKVX NSCLC, 43.9 µM; in the test on KM12 colon, more than 100 µM.
